In patent US20020061888A1, “Combination therapy for the prophylaxis and treatment of hyperlipidemic conditions and disorders” (priority 2000, published 2002):

Test: Water uptake experiments (Dynamic Vapor Sorption, water sorption/desorption isotherms at 25° C.)
Assay type: physicochemical
Description: A dry sample of the crystalline form having a melting point or a decomposition point of about 278° C. to about 285° C. (i.e., Form II) typically gains less than about 1% of its own weight when equilibrated under 80% relative humidity (RH) air at 25° C. […] For the present purposes, the term “essentially 0% RH” means less than about 1% RH. The term “equilibrated” means that the change in weight of a sample over time at a given relative humidity is less than 0.0003% ((dm/dt)/m0 ×100, where m is mass in mg, m0 is initial mass, and t is time in minutes).
Water sorption experiments are performed on a Dynamic Vapor Sorption (DVS) apparatus (DVS-1000 manufactured by Surface Measurements Systems, Inc.). Experiments are performed at 25° C. by initially drying the material of interest (about 10 mg sample) from 30% relative humidity (RH) ([…] RH step) by purging with dry nitrogen until no further weight change was observed. The samples are then exposed to a stepwise (10% RH steps) increase in RH from about 0 to about 90% RH. Each successive step is initiated when the change in weight over time at the relative humidity was less than 0.0003% ((dm/dt)/m0×100, where m is mass in mg, m0 is initial mass, and t is time in minutes). The sample is then taken through the reverse of the stepwise % RH increase. The data are collected on a computer and analyzed using SMS' proprietary MS-Excel macro interface software.

Compound: CCCCC1(CCCC)CS(=O)(=O)c2ccc(N(C)C)cc2[C@@H](c2ccc(OCc3ccc(C[N+]45CCN(CC4)CC5)cc3)cc2)[C@H]1O [Form I, (4R,5R)-1-((4-(4-(3,3-dibutyl-7-(dimethylamino)-2,3,4,5-tetrahydro-4-hydroxy-1,1-dioxido-1-benzithiepin-5-yl)phenoxy)methyl)phenyl)methyl-4-aza-1-azoniabicyclo[2.2.2]octane chloride]
- Desorption % Weight Change (0.45% RH at 25° C.): 0.057%
- Sorption % Weight Change (0.45% RH at 25° C.): 0.057%
- Desorption % Weight Change (9.2% RH at 25° C.): 0.997%
- Sorption % Weight Change (9.2% RH at 25° C.): 0.9575%
- Desorption % Weight Change (20.05% RH at 25° C.): 2.1025%
- Sorption % Weight Change (20.05% RH at 25° C.): 2.016%
- Desorption % Weight Change (29.75% RH at 25° C.): 3.599%
- Sorption % Weight Change (29.75% RH at 25° C.): 3.4105%
- Desorption % Weight Change (39.4% RH at 25° C.): 4.743%
- Sorption % Weight Change (39.4% RH at 25° C.): 4.282%
- Desorption % Weight Change (49.55% RH at 25° C.): 5.321%
- Sorption % Weight Change (49.55% RH at 25° C.): 4.928%
- Desorption % Weight Change (59.4% RH at 25° C.): 5.726%
- Sorption % Weight Change (59.4% RH at 25° C.): 5.356%
- Desorption % Weight Change (69.05% RH at 25° C.): 6.054%
- Sorption % Weight Change (69.05% RH at 25° C.): 5.706%
- Desorption % Weight Change (78.8% RH at 25° C.): 6.357%
- Sorption % Weight Change (78.8% RH at 25° C.): 6.109%
- Desorption % Weight Change (88.5% RH at 25° C.): 6.734%
- Sorption % Weight Change (88.5% RH at 25° C.): 6.734%

Compound: CCCCC1(CCCC)CS(=O)(=O)c2ccc(N(C)C)cc2[C@@H](c2ccc(OCc3ccc(C[N+]45CCN(CC4)CC5)cc3)cc2)[C@H]1O [Form II, (4R,5R)-1-((4-(4-(3,3-dibutyl-7-(dimethylamino)-2,3,4,5-tetrahydro-4-hydroxy-1,1-dioxido-1-benzithiepin-5-yl)phenoxy)methyl)phenyl)methyl-4-aza-1-azoniabicyclo[2.2.2]octane chloride]
- Desorption % Weight Change (1.3% RH at 25° C.): −0.02695%
- Sorption % Weight Change (1.3% RH at 25° C.): −0.02695%
- Desorption % Weight Change (9.35% RH at 25° C.): 0.04235%
- Sorption % Weight Change (9.35% RH at 25° C.): 0.04715%
- Desorption % Weight Change (20.25% RH at 25° C.): 0.09715%
- Sorption % Weight Change (20.25% RH at 25° C.): 0.1058%
- Desorption % Weight Change (29.75% RH at 25° C.): 0.1444%
- Sorption % Weight Change (29.75% RH at 25° C.): 0.1376%
- Desorption % Weight Change (39.55% RH at 25° C.): 0.1866%
- Sorption % Weight Change (39.55% RH at 25° C.): 0.1809%
- Desorption % Weight Change (49.7% RH at 25° C.): 0.2636%
- Sorption % Weight Change (49.7% RH at 25° C.): 0.2386%
- Desorption % Weight Change (59.5% RH at 25° C.): 0.331%
- Sorption % Weight Change (59.5% RH at 25° C.): 0.304%
- Desorption % Weight Change (69.1% RH at 25° C.): 0.3983%
- Sorption % Weight Change (69.1% RH at 25° C.): 0.3945%
- Desorption % Weight Change (78.65% RH at 25° C.): 0.4849%
- Sorption % Weight Change (78.65% RH at 25° C.): 0.4695%
- Desorption % Weight Change (88.5% RH at 25° C.): 0.6446%
- Sorption % Weight Change (88.5% RH at 25° C.): 0.6446%
- hygroscopicity (crystalline form, 80% RH air at 25° C.): essentially non-hygroscopic
- weight gain when equilibrated under 80% relative humidity (RH) air at 25° C. (dry sample (dried at essentially 0% RH, about 25° C., dry nitrogen purge)): less than 1 % of its own weight
